Source: patent US9458165B2, “DOT1L inhibitors” (Dana-Farber Cancer Institute, Inc., priority 2014, dated 2016)

Assay: Pharmacokinetic study, intravenous 5 mg/kg
Type: in vivo
Conditions: CD1 mice, 5 mg/kg, FIG. 8B
Experimental: Pharmacokinetic studies of the compound of Example 1 (i.e. CC-006) and previously disclosed compounds EPZ004777, CC001 (see U.S. 2014/0051654) and FED1 were performed in CD1 mice following intravenous administration, as detailed in Table 1.
Mean plasma concentration-time profiles representative of the compound of Example 1 (i.e. CC-006) after intravenous dosing (5 mg kg^−1) are shown in FIG. 8A (data represent the mean and s.d. (n=3)). […] From the pharmacokinetic properties, the compound of Example 1 (i.e. CC-006) has potential for use in treatment using intravenous administration due to its long half-life, as compared to subcutaneous administration.

**Q.** For `CC(C)N(C[C@H]1C[C@@H](n2ccc3c(N)ncnc32)[C@H](O)[C@@H]1O)[C@H]1C[C@@H](CCc2nc3cc(C(C)(C)C)ccc3[nH]2)C1` [CC001, reference compound], which “half-life (T1/2)” value is on record?
**A.** The value was “longest half-life of the compounds tested”.
